# Assay results: the NIST ThermoML archive (doi:10.1021/je400252p)
# ± gives the expanded uncertainty stated by the source.
# Columns and labels:
# [1] = for mass density / viscosity: 101.33 kPa; for mass density / surface tension liquid-gas / viscosity: Liquid; for mass density: Vibrating tube method; for surface tension liquid-gas: Ring tensiometer
# [2] = Molar enthalpy of transition or fusion; details: Crystal; DSC
# [3] = refractive index (Na D-line) (dimensionless); details: 313 K; 101.33 kPa; Liquid; Standard Abbe refractometry
smiles,measurement,setting,value
CCCCCC[N+]12CCN(CC1)CC2.O=S(=O)([N-]S(=O)(=O)C(F)(F)F)C(F)(F)F,mass density,[1]; 313.15 K,1355.15 ± 0.54 kg/m3
same,surface tension liquid-gas,[1]; 313.15 K,35.62 ± 0.52 mN/m
same,viscosity,[1]; 318.15 K,190.8 ± 21 mPa·s
same,mass density,[1]; 318.15 K,1350.93 ± 0.54 kg/m3
same,surface tension liquid-gas,[1]; 318.15 K,35.33 ± 0.52 mN/m
same,viscosity,[1]; 323.15 K,138.1 ± 12 mPa·s
same,mass density,[1]; 323.15 K,1346.72 ± 0.53 kg/m3
same,surface tension liquid-gas,[1]; 323.15 K,35.05 ± 0.52 mN/m
same,viscosity,[1]; 328.15 K,107 ± 6.7 mPa·s
same,mass density,[1]; 328.15 K,1342.51 ± 0.52 kg/m3
same,surface tension liquid-gas,[1]; 328.15 K,34.83 ± 0.51 mN/m
same,viscosity,[1]; 333.15 K,87.6 ± 4.1 mPa·s
same,mass density,[1]; 333.15 K,1338.29 ± 0.52 kg/m3
same,surface tension liquid-gas,[1]; 333.15 K,34.51 ± 0.52 mN/m
same,Normal melting temperature,"[1]; Crystal, DTA",36 ± 1.7 °C
same,Glass transition temperature,"[1]; Glass, DTA",-51 ± 5 °C
same,Molar enthalpy of transition or fusion,[2],2.63 ± 0.478 kcal/mol
same,refractive index,[3],1.4379 ± 0.0008
